PMC3433420 (PLoS ONE, 2012)
Residues, ends and D or L forms follow the SMILES beside them.

Columns and labels:
[1] = molecular target: T1, PLCG1-C SH2 domain (Homo sapiens, UniProt P19174); assay: biochemical; assay type: binding; details: high-confidence ErbB interactions
T1 construct: The 6X His-tagged SH2 domain proteins used in the assay, PLCG1-C, SHC4, VAV2; thioredoxin; made in house; host or cells: E. coli BL21(DE3)pLysS
T1 sequence (P19174 668-756 limits assumed): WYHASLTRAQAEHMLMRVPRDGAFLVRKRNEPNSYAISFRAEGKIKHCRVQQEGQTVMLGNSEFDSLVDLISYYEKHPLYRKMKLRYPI

[2] = molecular target: T2, PLCG1-NC tandem SH2 domains (Homo sapiens, UniProt P19174); assay: FP saturation binding assay; details: high-confidence ErbB interactions
T2 construct: the tandem protein was included in our analysis with all internal amino acids linking the domains; 6X His; thioredoxin; made in house; host or cells: E. coli BL21(DE3)pLysS
T2 sequence (P19174 550-756 limits assumed): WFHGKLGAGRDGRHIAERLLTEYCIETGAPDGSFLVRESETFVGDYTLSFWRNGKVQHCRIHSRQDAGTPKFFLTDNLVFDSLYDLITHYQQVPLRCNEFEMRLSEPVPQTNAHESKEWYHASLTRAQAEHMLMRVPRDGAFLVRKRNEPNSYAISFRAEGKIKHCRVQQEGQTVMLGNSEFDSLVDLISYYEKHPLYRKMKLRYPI

[3] = molecular target: T3, RASA1-N SH2 domain (Homo sapiens, UniProt P20936); assay: FP saturation binding assay
T3 sequence (P20936 181-272 limits assumed): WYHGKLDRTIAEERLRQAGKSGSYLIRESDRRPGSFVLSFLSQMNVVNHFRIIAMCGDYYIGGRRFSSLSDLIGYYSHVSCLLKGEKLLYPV

[4] = molecular target: PIK3R2-NC tandem SH2 domains (Homo sapiens, UniProt O00459); assay: FP saturation binding assay
Sequence of PIK3R2-NC tandem SH2 domains (O00459 330-716 limits assumed): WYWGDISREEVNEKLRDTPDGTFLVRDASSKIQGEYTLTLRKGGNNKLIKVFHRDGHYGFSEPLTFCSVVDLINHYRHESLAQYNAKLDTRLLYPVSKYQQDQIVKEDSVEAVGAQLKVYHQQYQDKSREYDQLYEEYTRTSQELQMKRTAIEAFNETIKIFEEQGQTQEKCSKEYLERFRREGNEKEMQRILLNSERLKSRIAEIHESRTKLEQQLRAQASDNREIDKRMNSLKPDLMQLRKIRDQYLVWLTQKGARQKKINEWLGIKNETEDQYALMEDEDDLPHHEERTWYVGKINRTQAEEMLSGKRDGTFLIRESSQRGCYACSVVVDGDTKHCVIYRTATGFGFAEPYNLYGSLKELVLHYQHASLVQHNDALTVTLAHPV

[5] = molecular target: T4, PIK3R1-N SH2 domain (Homo sapiens, UniProt P27986); assay: biochemical; assay type: binding; details: high-confidence ErbB interactions
T4 construct: thioredoxin; made in house; host or cells: E. coli BL21(DE3)pLysS
T4 sequence (P27986 333-428 limits assumed): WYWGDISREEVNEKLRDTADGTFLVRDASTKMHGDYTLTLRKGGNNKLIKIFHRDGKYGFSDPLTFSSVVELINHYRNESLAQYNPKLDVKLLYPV

[6] = protein PLCG1-NC, FP, mean of replicate hits
[7] = Protein PLCG1-NC, FP saturation binding, mean over replicate hits
[8] = Protein PIK3R1-N, FP saturation binding, mean over replicate hits

CSCC[C@H](NC(=O)[C@H](Cc1ccc(OP(=O)(O)O)cc1)NC(=O)CNC(=O)[C@H](CCC(=O)O)NC(=O)[C@H](CCC(=O)O)NC(=O)[C@H](CC(=O)O)NC(=O)[C@H](CC(C)C)NC(=O)[C@H](CCC(=O)O)NC(=O)CNC(=O)[C@H](CCCNC(=N)N)NC(=O)[C@@H]1CCCN1)C(=O)N[C@H](C(=O)N1CCC[C@H]1C(=O)N[C@@H](CCSC)C(=O)N[C@@H](CCCNC(=N)N)C(=O)N[C@@H](CC(=O)O)C(=O)N[C@@H](CCCCN)C(=O)N[C@@H](CC(=O)O)C(=O)O)[C@@H](C)O [ErbB4 1150 18-mer] (HELM PEPTIDE1{P.R.G.E.L.D.E.E.G.[O=C([C@H](Cc1ccc(OP(=O)(O)O)cc1)N[*:1])[*:2]].M.T.P.M.R.D.K.D}$$$$V2.0)
Kd ([1]; protein PLCG1-C, FP, mean of replicate hits): 3.1 µM | Kd [2, 6]: 2.82 µM | Kd [3]: 0.61 µM

CC(C)[C@H](NC(=O)[C@H](CC(=O)O)NC(=O)[C@@H]1CCCN1C(=O)[C@H](CCC(N)=O)NC(=O)[C@H](CC(N)=O)NC(=O)[C@@H](NC(=O)[C@H](Cc1ccc(OP(=O)(O)O)cc1)NC(=O)[C@H](CCC(=O)O)NC(=O)[C@@H]1CCCN1C(=O)[C@H](CCC(N)=O)NC(=O)[C@@H]1CCCN1)C(C)C)C(=O)N[C@@H](CCCNC(=N)N)C(=O)N[C@@H](CC(=O)O)C(=O)O [ErbB2 1139 13-mer] (HELM PEPTIDE1{P.Q.P.E.[O=C([C@H](Cc1ccc(OP(=O)(O)O)cc1)N[*:1])[*:2]].V.N.Q.P.D.V.R.D}$$$$V2.0)
Kd [2, 7]: 3.38 µM | Kd [4]: 5.81 µM

CSCC[C@H](NC(=O)[C@H](CCC(=O)O)NC(=O)[C@H](CCC(=O)O)NC(=O)[C@H](Cc1ccc(OP(=O)(O)O)cc1)NC(=O)CNC(=O)[C@H](CCC(N)=O)NC(=O)[C@H](CCC(=O)O)NC(=O)[C@@H](N)CO)C(=O)N[C@@H](CCCNC(=N)N)C(=O)N[C@@H](C)C(=O)N[C@@H](Cc1ccccc1)C(=O)N[C@@H](CCC(N)=O)C(=O)N[C@@H](CC(=O)O)C(=O)O [ErbB3 1289 13-mer] (HELM PEPTIDE1{S.E.Q.G.[O=C([C@H](Cc1ccc(OP(=O)(O)O)cc1)N[*:1])[*:2]].E.E.M.R.A.F.Q.D}$$$$V2.0)
Kd ([5]; protein PIK3R1-N, FP, mean of replicate hits): 0.25 µM | Kd [2, 6]: 6.14 µM | Kd [3]: 8.83 µM

CSCC[C@H](NC(=O)[C@H](Cc1ccc(OP(=O)(O)O)cc1)NC(=O)[C@H](CCC(=O)O)NC(=O)[C@H](Cc1ccc(O)cc1)NC(=O)CNC(=O)[C@@H](N)CC(C)C)C(=O)N[C@@H](CC(=O)O)C(=O)N[C@H](C(=O)NCC(=O)N[C@@H](CO)C(=O)N[C@@H](CC(=O)O)C(=O)N[C@@H](CC(C)C)C(=O)N[C@@H](CC(=O)O)C(=O)O)C(C)C [ErbB3 1224 13-mer] (HELM PEPTIDE1{L.G.Y.E.[O=C([C@H](Cc1ccc(OP(=O)(O)O)cc1)N[*:1])[*:2]].M.D.V.G.S.D.L.D}$$$$V2.0)
Kd [2, 6]: 4.22 µM | Kd [4]: 3.31 µM | Kd [3]: 1.24 µM

CC(C)C[C@H](NC(=O)[C@H](Cc1ccc(OP(=O)(O)O)cc1)NC(=O)[C@H](CC(C)C)NC(=O)[C@@H]1CCCN1C(=O)[C@H](CCC(=O)O)NC(=O)[C@H](CC(N)=O)NC(=O)[C@@H](NC(=O)[C@H](Cc1ccc(O)cc1)NC(=O)[C@H](CCC(=O)O)NC(=O)[C@H](CC(=O)O)NC(=O)[C@@H](N)CCC(=O)O)C(C)C)C(=O)N[C@@H](CC(N)=O)C(=O)N[C@H](C(=O)N[C@@H](Cc1ccccc1)C(=O)N[C@@H](C)C(=O)N[C@@H](CC(N)=O)C(=O)N[C@H](C(=O)N[C@@H](CC(=O)O)C(=O)O)[C@@H](C)O)[C@@H](C)O [ErbB4 1208 18-mer] (HELM PEPTIDE1{E.D.E.Y.V.N.E.P.L.[O=C([C@H](Cc1ccc(OP(=O)(O)O)cc1)N[*:1])[*:2]].L.N.T.F.A.N.T.D}$$$$V2.0)
Kd ([1]; protein PLCG1-C, mean of replicate hits): 2.07 µM | Kd ([2]; protein PLCG1-NC, mean of replicate hits): 0.97 µM | Kd [3]: 6.4 µM

CC(C)C[C@H](NC(=O)[C@H](Cc1ccc(OP(=O)(O)O)cc1)NC(=O)[C@H](CCC(=O)O)NC(=O)[C@H](CCC(=O)O)NC(=O)[C@H](C)NC(=O)[C@@H](N)CC(=O)O)C(=O)N[C@H](C(=O)N1CCC[C@H]1C(=O)N[C@@H](CCC(N)=O)C(=O)N[C@@H](CCC(N)=O)C(=O)NCC(=O)N[C@@H](Cc1ccccc1)C(=O)N[C@@H](CC(=O)O)C(=O)O)C(C)C [ErbB2 1023 13-mer] (HELM PEPTIDE1{D.A.E.E.[O=C([C@H](Cc1ccc(OP(=O)(O)O)cc1)N[*:1])[*:2]].L.V.P.Q.Q.G.F.D}$$$$V2.0)
Kd [5, 8]: 15.8 µM | Kd [2, 7]: 1.3 µM | Kd [4]: 6.09 µM | Kd [3]: 5.49 µM

CC(C)C[C@H](NC(=O)[C@H](CC(N)=O)NC(=O)[C@@H](N)CC(=O)O)C(=O)N[C@@H](Cc1ccc(O)cc1)C(=O)N[C@@H](Cc1ccc(OP(=O)(O)O)cc1)C(=O)N[C@@H](Cc1c[nH]c2ccccc12)C(=O)N[C@@H](CC(=O)O)C(=O)N[C@@H](CCC(N)=O)C(=O)N[C@@H](CC(=O)O)C(=O)N1CCC[C@H]1C(=O)N1CCC[C@H]1C(=O)N[C@@H](CCC(=O)O)C(=O)N[C@@H](CC(=O)O)C(=O)O [ErbB2 1222 13-mer] (HELM PEPTIDE1{D.N.L.Y.[O=C([C@H](Cc1ccc(OP(=O)(O)O)cc1)N[*:1])[*:2]].W.D.Q.D.P.P.E.D}$$$$V2.0)
Kd [5, 8]: 10.7 µM | Kd ([1]; Protein PLCG1-C, FP saturation binding, mean over replicate hits): 0.78 µM | Kd [2, 7]: 1.28 µM | Kd [4]: 7.81 µM | Kd [3]: 4.29 µM
